Results on 2 compounds are retold here after US20130296392A1, “METHODS FOR THE TREATMENT OF OVERACTIVE BLADDER” (THERAVIDA, INC., priority 2012, published 2013).

Assay [1] concerns healthy individuals. Nature of the assay: Stimulated salivary flow (SSF), change from pre-dose baseline. Format: in vivo, human. How it is done:
Stimulated salivary flow (SSF) and dry mouth (assessed using a “visual analog scale,” or VAS) were determined at frequent intervals after administration of each treatment. Urine frequency, urine volume/void, and fluid volume consumed were also assessed for each treatment. […] SSF was measured in the following manner. […] The subject may have expectorated saliva in the containers several times if there was excessive saliva. The SSF values were tabulated at each time point and descriptive statistics were generated by treatment, for measured values and changes from pre-dose baseline. Total weight of saliva over time was analyzed using analysis of variance, with Tukey's method of comparison between treatments. Dry mouth was tabulated at each time point and descriptive statistics were generated by treatment, for measured values and changes from pre-dose baseline. Urine frequency, urine volume/void and fluid volume consumed were tabulated and summarized by treatment.

In assay [2] the test system is healthy individuals. As to the kind of experiment: Dry mouth assessment by visual analog scale (VAS). It is filed as in vivo, human. The following applies: for Change from Baseline of Dry Mouth Assessment (VAS), Mean: VAS 0=not dry, 10=very dry. How it is done:
Stimulated salivary flow (SSF) and dry mouth (assessed using a “visual analog scale,” or VAS) were determined at frequent intervals after administration of each treatment. Urine frequency, urine volume/void, and fluid volume consumed were also assessed for each treatment.
The SSF values were tabulated at each time point and descriptive statistics were generated by treatment, for measured values and changes from pre-dose baseline. Total weight of saliva over time was analyzed using analysis of variance, with Tukey's method of comparison between treatments. Dry mouth was tabulated at each time point and descriptive statistics were generated by treatment, for measured values and changes from pre-dose baseline. Urine frequency, urine volume/void and fluid volume consumed were tabulated and summarized by treatment.
For qualitative assessment of dry mouth, the “visual analog scale,” or VAS, scale (0=not dry, 10=very dry, measured in centimeters) was used. Each subject was asked to mark a vertical line the VAS scale on how dry their mouth was at that moment.
VAS is a well-known method. In this method, subjects were shown a line scaled from 0 to 10 cm. Subjects were asked to rate the subjective criterion from 0-10 cm and make a mark on the line corresponding to their rating. For example, subjects were told that 0 cm on the line means no dry mouth at all and 10 cm on the line means extreme dry mouth. The subjects rated their extent of dry mouth on the line. Changes in the extent of dry mouth of a subject were measured using this technique throughout the treatment period.

Regarding `CC[C@@H]1C(=O)OC[C@@H]1Cc1cncn1C` [Treatment B, pilocarpine], the “Mean SSF Change from Pre-dose Baseline” value in the assay with healthy individuals [1] (1 hour post-dose) is 4.55 g; in the assay with healthy individuals [1] (2 hours post-dose) it was 2.33 g; in the assay on healthy individuals [1] (3 hours post-dose), 1.07 g; in the assay with healthy individuals [1] (4 hours post-dose), 0.64 g; with healthy individuals [1] (6 hours post-dose), 0.32 g; in the assay with healthy individuals [1] (9 hours post-dose) it was -0.20 g. Moreover, the “Mean SSF Change from Pre-dose Baseline” value in the assay on healthy individuals [1] (12 hours post-dose) was -0.08 g. In addition, the “Mean VAS scores of dry mouth over time” value in the assay on healthy individuals [2] (1 hour and 2 hour time points, compared with each of the other treatments) is reported as “markedly lower”. Moreover, the “Change from Baseline of Dry Mouth Assessment (VAS), Mean” value is −3.00 cm in the assay with healthy individuals [2] (1 hour post-dose); −2.34 cm with healthy individuals [2] (2 hours post-dose); −0.94 cm with healthy individuals [2] (3 hours post-dose); −0.69 cm in the assay with healthy individuals [2] (4 hours post-dose); −0.41 cm with healthy individuals [2] (6 hours post-dose); −1.38 cm with healthy individuals [2] ([…] post-dose).
Take `Cc1ccc(O)c([C@H](CCN(C(C)C)C(C)C)c2ccccc2)c1` [Treatment A, tolterodine]: the “Mean SSF Change from Pre-dose Baseline” value in the assay on healthy individuals [1] (1 hour post-dose) was -0.3 g; in the assay with healthy individuals [1] (2 hours post-dose), -0.42 g; in the assay on healthy individuals [1] (3 hours post-dose) it was -0.28 g; with healthy individuals [1] (4 hours post-dose), 0.05 g; with healthy individuals [1] (6 hours post-dose), 0.21 g; in the assay on healthy individuals [1] (9 hours post-dose), -0.06 g. Moreover, the “Mean SSF Change from Pre-dose Baseline” value with healthy individuals [1] (12 hours post-dose) was determined as 0.27 g. The “SSF after administration, in words” value in the assay with healthy individuals [1] (compared with placebo and pilocarpine alone (Treatment B)) is recorded as “decrease in SSF”. The “Change from Baseline of Dry Mouth Assessment (VAS), Mean” value with healthy individuals [2] (1 hour post-dose) is recorded as 0.03 cm; in the assay on healthy individuals [2] (2 hours post-dose), 0.63 cm; in the assay on healthy individuals [2] (3 hours post-dose), 0.97 cm; in the assay with healthy individuals [2] (4 hours post-dose), 0.56 cm; with healthy individuals [2] (6 hours post-dose), 0.00 cm; with healthy individuals [2] ([…] post-dose), 0.56 cm.
